Non-standard residues stand in square brackets, D forms with d. Residues, ends and D or L forms follow the SMILES beside them. No end group written: not given here. Aib = CC(C)(N)C(=O)O
Biological target: T1, WT PTH1R (Homo sapiens, UniProt Q03431)
T1 construct: a flag-tag was fused to the N terminal of full-length PTH1R (WT or mutant); expressed in transfected cells; host or cells: HEK293T
T1 sequence (Q03431 27-593): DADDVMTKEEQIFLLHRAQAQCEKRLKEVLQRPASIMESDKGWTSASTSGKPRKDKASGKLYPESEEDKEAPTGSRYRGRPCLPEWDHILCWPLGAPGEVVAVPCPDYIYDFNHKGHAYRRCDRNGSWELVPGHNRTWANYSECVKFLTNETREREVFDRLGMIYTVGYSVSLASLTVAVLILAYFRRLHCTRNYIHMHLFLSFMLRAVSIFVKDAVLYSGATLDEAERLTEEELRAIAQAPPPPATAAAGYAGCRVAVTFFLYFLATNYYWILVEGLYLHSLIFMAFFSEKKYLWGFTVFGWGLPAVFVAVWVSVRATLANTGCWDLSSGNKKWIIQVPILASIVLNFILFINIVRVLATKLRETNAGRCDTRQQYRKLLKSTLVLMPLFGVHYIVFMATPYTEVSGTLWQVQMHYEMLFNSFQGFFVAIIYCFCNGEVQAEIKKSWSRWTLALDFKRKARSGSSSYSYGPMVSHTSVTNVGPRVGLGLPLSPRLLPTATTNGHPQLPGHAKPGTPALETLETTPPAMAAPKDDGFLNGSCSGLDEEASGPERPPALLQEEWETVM
Experiment: cAMP accumulation assay (GloSensor), wild-type PTH1R
Format: cell-based
Conditions: HEK293T cells; for Emax: from curve fitting dose-response data; for EC50: half-maximal stimulatory concentration from curve fitting dose-response data
Protocol: Human embryonic kidney 293 T (HEK293T, ATCC: CRL-1573) cells were transfected with a plasmid mixture consisting of pcDNA3.1-flag-PTH1R (WT or mutants) and the cAMP biosensor GloSensor-22F (Promega) at a ratio of 2:1 (see Supplementary Table 7 for a list of primers used in this study). After 24 h, transfected cells were plated onto a 384-well plate, which was treated with cell adherent reagent (Applygen) in advance. After another 12 h, cells were treated with Hank’s balanced salt solution for starvation and then incubated in CO2-independent media containing 4% GloSensor cAMP Reagent (Promega) at a volume of 5 μl per well and incubated for 20 min at RT before measurements for baseline luminescence (Spark Multimode microplate reader, TECAN). Next, test ligands were added at different concentrations from 10^−6 to 10^−13 M before second measurement. Finally, data were normalized to 100% of the maximal PTH (1-34) response for WT PTH1R using a sigmoidal dose-response in GraphPad Prism.
Statistical analyses were performed on at least three individual datasets and analysed using GraphPad Prism software. Bars represent differences in the calculated agonist potency (pEC50) and maximum agonist response (Emax) for each mutant relative to the WT receptor. Data are mean± s.e.m. from at least three independent experiments, performed in triplicates. ns, not significant, ^nsP > 0.01; ^*P < 0.01; ^**P < 0.001; ^***P < 0.0001 (one-way analysis of variance (ANOVA) followed by Dunnett’s test, compared with the response of the WT). For dose-response experiments, data were normalized and analyzed using nonlinear curve fitting for the log (agonist) versus response (three parameters) curves.

| Emax | EC50 [nM] | Compound |
| --- | --- | --- |
| – | 23.6 | CSCC[C@H](NC(=O)[C@H](CC(C)C)NC(=O)[C@H](CCC(N)=O)NC(=O)[C@H](Cc1c[nH]cn1)NC(=O)[C@H](CCC(=O)O)NC(=O)[C@H](CO)NC(=O)[C@@H](NC(=O)[C@@H](N)CO)C(C)C)C(=O)N[C@@H](Cc1c[nH]cn1)C(=O)N[C@@H](CC(N)=O)C(=O)N[C@@H](CC(C)C)C(=O)NCC(=O)N[C@@H](CCCCN)C(=O)N[C@@H](Cc1c[nH]cn1)C(=O)N[C@@H](CC(C)C)C(=O)N[C@@H](CC(N)=O)C(=O)N[C@@H](CO)C(=O)N[C@@H](CCSC)C(=O)N[C@@H](CCC(=O)O)C(=O)N[C@@H](CCCNC(=N)N)C(=O)N[C@H](C(=O)N[C@@H](CCC(=O)O)C(=O)N[C@@H](Cc1c[nH]c2ccccc12)C(=O)N[C@@H](CC(C)C)C(=O)N[C@@H](CCCNC(=N)N)C(=O)N[C@@H](CCCCN)C(=O)N[C@@H](CCCCN)C(=O)N[C@@H](CC(C)C)C(=O)N[C@@H](CCC(N)=O)C(=O)N[C@@H](CC(=O)O)C(=O)N[C@H](C(=O)N[C@@H](Cc1c[nH]cn1)C(=O)N[C@@H](CC(N)=O)C(=O)N[C@@H](Cc1ccccc1)C(=O)O)C(C)C)C(C)C [PTH(I5H)] |
| 117.7 luminescence counts per 500ms | 1.4 | AVAEHQLMHNRAKWIQDARRRAFLHKLIAEIHTAEI [LAPTH(I5H;Q10N)] |
| 106.9 luminescence counts per 500ms | 2.08 | AVAEHQLMHQLAKWIQDARRRAFLHKLIAEIHTAEI [LAPTH(I5H;R11L)] |
| 117.8 luminescence counts per 500ms | 0.493 | AVAEHQLMHQRAKHIQDARRRAFLHKLIAEIHTAEI [LAPTH(I5H;W14H)] |
| 129.5 luminescence counts per 500ms | 2.08 | AVAEHQLMHQRGKWIQDARRRAFLHKLIAEIHTAEI [LAPTH(I5H;A12G)] |
| – | 3.45 | AVAEIQLLHQRAKWIQDARRRAFLHKLIAEIHTAEI [LAPTH(M8L)] |
| 107.5 luminescence counts per 500ms | – | AVAEIQLLMHQRAKSIQDARRRAFLHKLIAEIHTAEI [LAPTH(W14H)] |

The next lines start with the compound.

| Compound | Emax | EC50 [nM] |
| --- | --- | --- |
| CC[C@H](C)[C@H](NC(=O)[C@H](CO)NC(=O)[C@H](CCCCN)NC(=O)CNC(=O)[C@H](CCCCN)NC(=O)[C@H](CC(=O)O)NC(=O)[C@H](Cc1c[nH]cn1)NC(=O)[C@H](CC(C)C)NC(=O)[C@H](CC(C)C)NC(=O)[C@H](CCC(N)=O)NC(=O)[C@@H](NC(=O)[C@H](CCC(=O)O)NC(=O)[C@H](CO)NC(=O)[C@@H](NC(=O)[C@H](C)N)C(C)C)[C@@H](C)CC)C(=O)N[C@@H](CCC(N)=O)C(=O)N[C@@H](CC(=O)O)C(=O)N[C@@H](CC(C)C)C(=O)N[C@@H](CCCNC(=N)N)C(=O)N[C@@H](CCCNC(=N)N)C(=O)N[C@@H](CCCNC(=N)N)C(=O)N[C@@H](CCC(=O)O)C(=O)N[C@@H](CC(C)C)C(=O)N[C@@H](CC(C)C)C(=O)N[C@@H](CCC(=O)O)C(=O)N[C@@H](CCCCN)C(=O)N[C@@H](CC(C)C)C(=O)N[C@@H](CC(C)C)C(=O)NC(C)(C)C(=O)N[C@@H](CCCCN)C(=O)N[C@@H](CC(C)C)C(=O)N[C@@H](Cc1c[nH]cn1)C(=O)N[C@H](C(=O)N[C@@H](C)C(N)=O)[C@@H](C)O [ABL(H5I)] (H-AVSEIQLLHDKGKSIQDLRRRELLEKLL[Aib]KLHTA-NH2) | 104.1 luminescence counts per 500ms | 0.32 |
| AVAEHQLMHQRAKWIQDARRRAFLHKLIAEIHTAEI [LAPTH(I5H)] | – | 0.183 |
| AVAEHQLMHQRAKWIQDLRRRFFLHHLIAEIHTAEI-NH2 [LAPTH(1-14,I5H)/PTHrP(15-34)] | 142.8 luminescence counts per 500ms | 1.76 |
| AVAEHQLMHQRAKWLNSMERVEWLRKKLQDVHNF [LAPTH(1-14,I5H)/PTH(15-34)] | 129.6 luminescence counts per 500ms | 0.643 |
| AVSEHQLMHQRAKWIQDARRRAFLHKLIAEIHTAEI [LAPTH(I5H;A3S)] | 125.3 luminescence counts per 500ms | 0.39 |
| SVAEHQLMHQRAKWIQDARRRAFLHKLIAEIHTAEI [LAPTH(I5H;A1S)] | 119.8 luminescence counts per 500ms | 1.84 |
| SVSEHQLMHNLGKHIQDARRRAFLHKLIAEIHTAEI [LA-PTH (I5H-PTH;NT)] | 102.1 luminescence counts per 500ms | 1.98 |
